Experimental data: patent US11358962B2, “2-hetaryl imidazol[1,2-a]pyridine derivatives” (Hoffmann-La Roche Inc., priority 2013, dated 2022)

What follows are compounds tested on native tau aggregates (assay: TAU radioligand in vitro displacement assay ([3H]T808, autoradiography on human AD brain sections)). Settings: compound 10 nM, radioligand [3H]T808 10 nM.
Type: binding
Excerpt: TAU Radioligand-In-Vitro Displacement Assay
This in vitro binding assay assesses the affinity of compounds for native tau aggregates.
AD human brains are purchased from Banner Sun Health Research Institute (Sun City, Ariz., USA). Pathological diagnosis of AD is made according to standard NIA-Reagan Institute criteria based on neuropathological data. The radioligand [^3H]T808 was synthesized in-house ([^3H]-2-[4-(2-Fluoro-ethyl)-piperidin-1-yl]-benzo[4,5]imidazo[1,2-a]pyrimidine, radiochemical purity 99.0%). As a reference cold T808 is used (2-[4-(2-Fluoro-ethyl)-piperidin-1-yl]-benzo[4,5]imidazo[1,2-a]pyrimidine). For the autoradiography FujiFilm Imaging Plates (BAS-IP TR 2025) are exposed to the sections and read with a FujiFilm IP reader (BAS-5000).
Ten μm thick human AD brain sections are generated with a cryostat (Leica CM3050) at −17° C. chamber temperature and −15° C. object temperature. Sections are transferred to Histobond+ microscope slides (Marienfeld Laboratory Glasware). After drying for 3 hours at room temperature the sections are stored at −20° C. The sections are incubated with the radioligand (10 nM) and the respective cold compound (at various concentrations) in 50 mM Tris buffer, pH 7.4 at room temperature for 30 min. After washing 3× 10 min at 4° C. in 50 mM Tris buffer, pH 7.4 and 3 quick dips in H2O dist. at 4° C. the sections are dried at 4° C. for 3 h. The sections are placed in a FujiFilm Cassette (BAS 2025), exposed with an Imaging Plate for five days and afterwards scanned with a resolution of […].
The signal intensity (Dens−PSL/mm2) in the region of interest (ROI) of the autoradiogram is quantified with the software MCID analysis (version 7.0, Imaging Research Inc.). The specific binding (SB) of [^3H]T808 binding in absence or in presence of a compound is calculated by subtracting the non-specific binding signal in the white matter, thus yielding SB[3H]T808 only and SBcompound. The % displacement by the various compounds is calculated as following: % displacement=100−(SBcompound/SB[3H]T808 only)*100. Validation Data
In each experiment cold T808 is used as a positive internal control. Co-incubation of equimolar amounts of hot and cold T808 is expected to reduce specific binding by approximately 50%.

% displacement of [3H]T808 (10 nM) at 10 nM [%] | Compound
8 | COc1ccc(-c2cn3ccc(N4CC[C@H](F)C4)cc3n2)cc1 [6 (S), (S)-7-(3-Fluoropyrrolidin-1-yl)-2-(4-methoxyphenyl)imidazo[1,2-a]pyridine]
11 | COc1ccc(-c2cn3ccc(N4CC[C@@H](F)C4)cc3n2)cc1 [7 (R), (R)-7-(3-Fluoropyrrolidin-1-yl)-2-(4-methoxyphenyl)imidazo[1,2-a]pyridine]
40 | FCCNc1ccn2cc(-c3ccccc3)nc2c1 [Example 1, N-(2-Fluoroethyl)-2-phenylimidazo[1,2-a]pyridin-7-amine 2,2,2-trifluoroacetate]
50 | CN(CCF)c1ccn2cc(-c3ccccc3)nc2c1 [Example 2, N-(2-Fluoroethyl)-N-methyl-2-phenylimidazo[1,2-a]pyridin-7-amine]
59 | CN(C)c1ccn2cc(-c3ccccc3)nc2c1 [Example 3, N,N-Dimethyl-2-phenylimidazo[1,2-a]pyridin-7-amine]
61 | CNc1ccn2cc(-c3ccccc3)nc2c1 [Example 4, N-Methyl-2-phenylimidazo[1,2-a]pyridin-7-amine]
21 | FC1CCN(c2ccn3cc(-c4ccccc4)nc3c2)CC1 [Example 5, 7-(4-Fluoropiperidin-1-yl)-2-phenylimidazo[1,2-a]pyridine]
25 | COc1cccc(-c2cn3ccc(N4CCCCC4)cc3n2)c1 [Example 8, 2-(3-Methoxy-phenyl)-7-piperidin-1-yl-imidazo[1,2-a]pyridine]
33 | COc1cccc(-c2cn3ccc(N4CCCC4)cc3n2)c1 [Example 9, 2-(3-Methoxy-phenyl)-7-pyrrolidin-1-yl-imidazo[1,2-a]pyridine]
27 | COc1cccc(-c2cn3ccc(N4CCOCC4)cc3n2)c1 [Example 10, 2-(3-Methoxy-phenyl)-7-morpholin-4-yl-imidazo[1,2-a]pyridine]
27 | COc1ccc(-c2cn3ccc(N4CCCC4)cc3n2)cc1 [Example 11, 2-(4-Methoxy-phenyl)-7-pyrrolidin-1-yl-imidazo[1,2-a]pyridine]
30 | COc1ccc(-c2cn3ccc(N4CCCCC4)cc3n2)cc1 [Example 12, 2-(4-Methoxy-phenyl)-7-piperidin-1-yl-imidazo[1,2-a]pyridine]
40 | COc1ccc(-c2cn3ccc(N4CCOCC4)cc3n2)cc1 [Example 13, 2-(4-Methoxy-phenyl)-7-morpholin-4-yl-imidazo[1,2-a]pyridine]
26 | COc1ccc(-c2cn3ccc(N4CCC(F)CC4)cc3n2)cc1 [Example 14, 7-(4-Fluoro-piperidin-1-yl)-2-(4-methoxy-phenyl)-imidazo[1,2-a]pyridine]
33 | COc1ccc(-c2cn3ccc(N4CCN(CCF)CC4)cc3n2)cc1 [Example 15, 7-[4-(2-Fluoro-ethyl)-piperazin-1-yl]-2-(4-methoxy-phenyl)-imidazo[1,2-a]pyridine]
29 | CN(C)c1ccc(-c2cn3ccc(N(C)C)cc3n2)cc1 [Example 16, [2-(4-Dimethylamino-phenyl)-imidazo[1,2-a]pyridin-7-yl]-dimethyl-amine]

% displacement of [3H]T808 (10 nM) at 10 nM [%] | Compound
37 | CN(C)c1ccn2cc(-c3ccc(OCCF)cc3)nc2c1 [Example 17, {2-[4-(2-Fluoro-ethoxy)-phenyl]-imidazo[1,2-a]pyridin-7-yl}-dimethyl-amine]
46 | CN(C)c1ccn2cc(-c3ccc(OCF)cc3)nc2c1 [Example 18, [2-(4-Fluoromethoxy-phenyl)-imidazo[1,2-a]pyridin-7-yl]-dimethyl-amine]
37 | CNc1ccn2cc(-c3ccc4c(c3)OCCO4)nc2c1 [Example 19, [2-(2,3-Dihydro-benzo[1,4]dioxin-6-yl)-imidazo[1,2-a]pyridin-7-yl]-methyl-amine]
35 | COc1ccc(-c2cn3ccc(N(C)C)cc3n2)cc1 [Example 20, [2-(4-Methoxy-phenyl)-imidazo[1,2-a]pyridin-7-yl]-dimethyl-amine]
39 | CN(C)c1ccn2cc(-c3ccc4c(c3)OCCO4)nc2c1 [Example 22, [2-(2,3-Dihydro-benzo[1,4]dioxin-6-yl)-imidazo[1,2-a]pyridin-7-yl]-dimethyl-amine]
27 | CN(CCF)c1ccn2cc(-c3ccc4c(c3)OCCO4)nc2c1 [Example 23, [2-(2,3-Dihydro-benzo[1,4]dioxin-6-yl)-imidazo[1,2-a]pyridin-7-yl]-(2-fluoro-ethyl)-methyl-amine]
54 | COc1ccc(-c2cn3ccc(N4CCC4)cc3n2)cc1 [Example 24, 7-Azetidin-1-yl-2-(4-methoxy-phenyl)-imidazo[1,2-a]pyridine]
54 | CNc1ccn2cc(-c3cccc(C)c3)nc2c1 [Example 25, N-Methyl-2-m-tolylimidazo[1,2-a]pyridin-7-amine]
53 | Cc1cccc(-c2cn3ccc(N(C)C)cc3n2)c1 [Example 26, N,N-Dimethyl-(2-m-tolyl-imidazo[1,2-a]pyridin-7-yl)-amine]
52 | Cc1ccc(-c2cn3ccc(N(C)C)cc3n2)cc1 [Example 27, N,N-Dimethyl-(2-p-tolyl-imidazo[1,2-a]pyridin-7-yl)-amine]
57 | CNc1ccn2cc(-c3ccc(C)cc3)nc2c1 [Example 28, N-Methyl-(2-p-tolyl-imidazo[1,2-a]pyridin-7-yl)-amine]
38 | Cc1ccc(-c2cn3ccc(N(C)CCF)cc3n2)cc1 [Example 29, N-(2-Fluoroethyl)-N-methyl-(2-p-tolyl-imidazo[1,2-a]pyridin-7-yl)-amine]
23 | CN(C)c1ccc(-c2cn3ccc(N(C)CCF)cc3n2)cc1 [Example 30, 2-(4-(Dimethylamino)phenyl)-N-(2-fluoroethyl)-N-methylimidazo[1,2-a]pyridin-7-amine]
31 | F[C@H]1CCN(c2ccn3cc(-c4ccccc4)nc3c2)C1 [Example 31, (S)-7-(3-Fluoropyrrolidin-1-yl)-2-phenyl-imidazo[1,2-a]pyridine]
36 | COc1cccc(-c2cn3ccc(N(C)C)cc3n2)c1 [Example 32, [2-(3-Methoxy-phenyl)-imidazo[1,2-a]pyridin-7-yl]-dimethyl-amine]
5 | FCCC1CCN(c2ccn3cc(-c4ccc5c(c4)OCCO5)nc3c2)CC1 [Example 33, 2-(2,3-Dihydro-benzo[1,4]dioxin-6-yl)-7-[4-(2-fluoro-ethyl)-piperidin-1-yl]-imidazo[1,2-a]pyridine]

Compound | % displacement of [3H]T808 (10 nM) at 10 nM [%]
2-Benzo[1,3]dioxol-5-yl-7-[4-(2-fluoro-ethyl)-piperidin-1-yl]-imidazo[1,2-a]pyridine [Example 21] | 7

Same assay, conditions: compound 1 uM, radioligand [3H]T808 10 nM

% displacement of [3H]T808 (10 nM) at 1 uM [%] | Compound
93 | FCCNc1ccn2cc(-c3ccccc3)nc2c1 [Example 1, N-(2-Fluoroethyl)-2-phenylimidazo[1,2-a]pyridin-7-amine 2,2,2-trifluoroacetate]
90 | CN(CCF)c1ccn2cc(-c3ccccc3)nc2c1 [Example 2, N-(2-Fluoroethyl)-N-methyl-2-phenylimidazo[1,2-a]pyridin-7-amine]
92 | CN(C)c1ccn2cc(-c3ccccc3)nc2c1 [Example 3, N,N-Dimethyl-2-phenylimidazo[1,2-a]pyridin-7-amine]
93 | CNc1ccn2cc(-c3ccccc3)nc2c1 [Example 4, N-Methyl-2-phenylimidazo[1,2-a]pyridin-7-amine]
82 | FC1CCN(c2ccn3cc(-c4ccccc4)nc3c2)CC1 [Example 5, 7-(4-Fluoropiperidin-1-yl)-2-phenylimidazo[1,2-a]pyridine]
